Test results as given in patent publication US20150209294A1, “PHARMACEUTICAL COMPOSITION AND PROCESS” (Hoffmann-La Roche Inc., priority 2006, published 2015).

Columns and labels:
[1] = pH-dependent chemical stability (hydrolysis of ester linkage); assay type: physicochemical; settings: at pH>6
[2] = oral bioavailability in monkeys; settings: monkey, in vivo
[3] = oral bioavailability in dogs; settings: dog, in vivo
[4] = permeability of R 411; assay type: in vitro ADME; settings: limited permeability
[5] = oral bioavailability in rats; settings: rat, in vivo

## CCN(CC)CCOC(=O)[C@H](Cc1ccc(NC(=O)c2c(Cl)cccc2Cl)cc1)NC(=O)c1c(C)cccc1Cl.Cl [R 411, N-(2-chloro-6-methylbenzoyl)-4-[(2,6-dichlorobenzoyl)amino]-L-phenylalanine-2-(diethylamino)ethyl ester hydrochloride]
[1]
  stability to hydrolysis: prone to alkaline hydrolysis
[2]
  bioavailability: 6%
[3]
  bioavailability: 20%
[4]
  permeability: 58×10^−6 cm^2/sec
[5]
  bioavailability: 20%
